Legend:
PfGNA1 = molecular target: T1, PfGNA1 (Plasmodium falciparum, UniProt C6KTC5); assay: HPLC-MS/MS GNA1 assay; format: biochemical; settings: 500 µM AcCoA, 500 µM GlcN-6P, 25 mM Tris-HCl, 150 mM NaCl, pH 7.2, room temperature
T1 construct: gene PF3D7_0629000; deficiently expressed
T1 sequence (C6KTC5 1-291): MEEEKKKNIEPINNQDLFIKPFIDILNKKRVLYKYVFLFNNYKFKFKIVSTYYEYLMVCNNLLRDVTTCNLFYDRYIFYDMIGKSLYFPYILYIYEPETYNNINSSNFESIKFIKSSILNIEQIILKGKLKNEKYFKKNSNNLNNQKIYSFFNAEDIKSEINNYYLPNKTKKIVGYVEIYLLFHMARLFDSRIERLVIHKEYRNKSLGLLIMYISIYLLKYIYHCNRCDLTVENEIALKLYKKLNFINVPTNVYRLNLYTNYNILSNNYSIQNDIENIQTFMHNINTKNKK

TgGNA1 = molecular target: T2, TgGNA1 (Toxoplasma gondii, UniProt A0A7J6K6Y4); assay: HPLC-MS/MS and colorimetric GNA1 assay; format: biochemical; settings: […] AcCoA, […] GlcN-6P, […] Tris-HCl, […] NaCl, pH […], room temperature
T2 construct: gene TGRH88_028800
T2 sequence (A0A7J6K6Y4 1-516): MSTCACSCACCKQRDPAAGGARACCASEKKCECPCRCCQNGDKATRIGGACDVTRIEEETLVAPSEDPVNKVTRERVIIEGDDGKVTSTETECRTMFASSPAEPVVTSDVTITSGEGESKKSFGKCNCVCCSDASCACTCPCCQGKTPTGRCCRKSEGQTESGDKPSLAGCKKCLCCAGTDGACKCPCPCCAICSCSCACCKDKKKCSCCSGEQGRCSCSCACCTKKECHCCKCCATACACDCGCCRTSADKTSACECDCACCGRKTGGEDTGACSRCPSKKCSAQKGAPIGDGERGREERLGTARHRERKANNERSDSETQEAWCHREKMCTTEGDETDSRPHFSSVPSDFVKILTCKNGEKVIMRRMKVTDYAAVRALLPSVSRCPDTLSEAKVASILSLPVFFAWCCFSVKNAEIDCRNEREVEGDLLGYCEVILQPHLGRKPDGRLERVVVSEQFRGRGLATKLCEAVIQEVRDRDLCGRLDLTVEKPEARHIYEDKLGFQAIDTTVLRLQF

Row | Structure (SMILES) | HPLC-MS/MS GNA1 assay (PfGNA1) | HPLC-MS/MS and colorimetric GNA1 assay (TgGNA1)
1 | CC(=O)SCCNC(=O)CCNC(=O)[C@H](O)C(C)(C)COP(=O)(O)OP(=O)(O)OC[C@H]1O[C@@H](n2cnc3c(N)ncnc32)[C@H](O)[C@@H]1OP(=O)(O)O [AcCoA] | PfGNA1 and TaGNA1 were deficiently expressed, they also showed residual activity as detected by HPLC-MS/MS | The enzymes used GlcN-6P as substrate and AcCoA as donor to produce GlcNAc-6P
2 | N[C@H]1C(O)O[C@H](COP(=O)(O)O)[C@@H](O)[C@@H]1O (stereo partly shown) [GlcN-6P] | PfGNA1 and TaGNA1 were deficiently expressed, they also showed residual activity as detected by HPLC-MS/MS | TgGNA1 distinctly acetylated GlcN-6P
